Test results taken from patent US6504052B1, “Excitatory amino acid receptor modulators” (Eli Lilly and Company, priority 1999, dated 2003).

Target: T1, mGluR2 (Homo sapiens, UniProt Q14416)
T1 construct: expressed in transfected cells
Test: [3H]LY341495 binding displacement at mGluR2
Details: radioligand [3H]LY341495, cells expressing human mGluR subtypes, read-out: Ki for reversal of [3 H] LY341495 binding
Excerpt: (D. D. Schoepp, et al., Neuropharmacol., 1996, 35, 1661-1672 and 1997, 36, 111).
(LY341495 is described in Ornstein et al., J. Med. Chem., 1998, 41, 346-357 and J. Med. Chem., 1998, 41, 358 to 378).

T1 sequence (Q14416 19-872): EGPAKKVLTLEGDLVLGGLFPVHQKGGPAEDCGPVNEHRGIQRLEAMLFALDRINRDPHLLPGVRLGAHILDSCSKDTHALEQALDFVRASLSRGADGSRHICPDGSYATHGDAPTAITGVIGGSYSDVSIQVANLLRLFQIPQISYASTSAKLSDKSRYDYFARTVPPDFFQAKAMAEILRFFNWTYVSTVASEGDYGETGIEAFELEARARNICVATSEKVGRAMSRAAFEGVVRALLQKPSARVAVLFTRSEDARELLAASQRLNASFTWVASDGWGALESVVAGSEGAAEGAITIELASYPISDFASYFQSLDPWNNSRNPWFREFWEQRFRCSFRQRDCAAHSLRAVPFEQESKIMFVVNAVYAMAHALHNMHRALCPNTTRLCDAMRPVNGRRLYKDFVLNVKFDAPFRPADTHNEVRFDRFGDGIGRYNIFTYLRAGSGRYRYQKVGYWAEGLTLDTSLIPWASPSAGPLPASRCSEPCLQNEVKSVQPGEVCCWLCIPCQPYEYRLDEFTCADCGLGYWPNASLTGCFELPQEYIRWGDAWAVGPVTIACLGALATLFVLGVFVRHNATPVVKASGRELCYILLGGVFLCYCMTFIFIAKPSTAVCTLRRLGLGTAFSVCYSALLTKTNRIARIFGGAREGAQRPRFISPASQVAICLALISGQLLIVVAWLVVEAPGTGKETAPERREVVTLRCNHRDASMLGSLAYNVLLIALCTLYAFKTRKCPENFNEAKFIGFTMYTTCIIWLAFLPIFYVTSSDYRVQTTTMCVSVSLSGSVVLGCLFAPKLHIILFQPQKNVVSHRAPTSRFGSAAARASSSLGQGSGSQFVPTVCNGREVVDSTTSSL

| SMILES | Ki [nM] |
| --- | --- |
| C[C@H]1[C@H](C(=O)O)[C@H]1[C@H](N)C(=O)O [Example 1, (2S,1′S,2′S,3′R)-2-(3′-Methyl-2′-carboxycyclopropyl)glycine] | 100 |
| C[C@@H]1[C@H](C(=O)O)[C@H]1[C@H](N)C(=O)O [(2S,1′S,2′S,3′S)-2′-carboxy-3′methylcyclopropylglycine] | 2640 |
